Reference: US20250059182A1, “SOS1 INHIBITORS” (Mirati Therapeutics, Inc., priority 2021, published 2025)

How the values were obtained:
pERK in MKN1 cells = experiment: pERK inhibition, In-Cell Western (LI-COR Odyssey), MKN1 cells; assay type: cell-based; settings: Homo sapiens, MKN-1, Table B; MKN1 or H358 cells (table does not say which); 0.5-1 hour incubation; read-out: IC50 (nM), pERK inhibition
Protocol: This Example illustrates that exemplary compounds of the present invention prevent KRas-mediated GTP nucleotide exchange mediated by SOS1 to inhibit KRas activity thereby inhibiting the generation of the downstream effector pERK.
MKN1 cells (15,000/w) or H358 (30,000/w) were seeded in a black clear flat bottom 96-well cell culture plate (Corning, #3904) and incubated at 37° C. overnight. Assay day 1, cells were dosed with compounds of Formula (I) with a 10 μm starting concentration and serially diluted 3× for a total of 9 concentrations. The cells were incubated for approximately 0.5-1 hour with the compounds solubilized in DMSO at 37° C. Cells were immediately fixed by adding 50 μL of 4% formaldehyde to all wells in a fume hood and the plates were incubated for 20 minutes at room temperature. The formaldehyde was discarded from the plates and 150 μL of ice-cold methanol was added to permeabilize the cells for 10 minutes at −20° C. The methanol was discarded from each of the plates and any liquid remaining in the plate by tapping the plate against paper towels. Cells were then blocked with 150 μL of Odyssey blocking buffer (LI-COR Biosciences #927-50010) using 0.05% Tween for 1 hour at room temperature on a shaker. The blocking buffer was discarded and 50 μL of primary antibodies pERK (cell signaling Technology #9101L; Rabbit, 1:500) and GapDH (Millipore #MAB34; Mouse, 1:5000) diluted in Odyssey blocking buffer was added. The plates were incubated overnight at 4° C. on a shaker.
On Assay day 2, the primary antibody solution was removed. Each plate was washed 3× times with 150 μL of 1×PBST (PBS+0.1% Tween 20) and incubated with 50 μL of secondary antibodies: Anti-Rabbit (LI-COR Biosciences #926-32211) and Anti-Mouse (LI-COR Biosciences #68070) at 1:800 dilution in Odyssey blocking buffer with Tween at room temperature on a shaker for 2 hours (protected from light). The secondary antibody solution as removed and each plate was washed with PBST 3× times. Any liquid remaining was discarded and the plate was imaged using the Licor Odyssey machine according to the manufacturer's instruction, using a set focus length at 3 mm and both 800 nm and 700 nm filters. The GAPDH normalized scan values for each well were divided by the average of vehicle wells to get the % of pERK inhibition. The IC50 values were then calculated with the Graph pad Prism software.

[1] = target: T1, recombinant human SOS1 polypeptide (amino acids 560-1049) (Homo sapiens, UniProt Q07889); experiment: HTRF displacement assay: inhibition of labeled tracer binding to SOS1; settings: Table A, Morrison equation for competitive binding
T1 construct: corresponding to amino acids 560-1049, expressed in E. Coli; made in house; host or cells: E. coli
T1 sequence (Q07889 560-1049): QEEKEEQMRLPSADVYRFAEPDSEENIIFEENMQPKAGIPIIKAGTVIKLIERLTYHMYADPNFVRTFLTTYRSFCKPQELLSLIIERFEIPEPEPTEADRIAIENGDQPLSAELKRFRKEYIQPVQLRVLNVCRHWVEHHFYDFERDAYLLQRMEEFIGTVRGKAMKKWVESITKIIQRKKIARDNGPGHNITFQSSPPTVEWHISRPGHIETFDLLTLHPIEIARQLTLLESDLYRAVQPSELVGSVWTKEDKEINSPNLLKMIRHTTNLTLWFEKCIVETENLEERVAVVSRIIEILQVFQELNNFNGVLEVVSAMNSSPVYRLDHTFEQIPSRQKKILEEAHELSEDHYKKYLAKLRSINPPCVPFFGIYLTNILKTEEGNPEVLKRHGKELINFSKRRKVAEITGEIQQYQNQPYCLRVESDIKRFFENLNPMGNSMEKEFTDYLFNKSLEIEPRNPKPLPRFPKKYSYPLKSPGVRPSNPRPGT
Protocol: The ability of a compound of Formula (I) to bind to SOS1 was measured using a HTRF displacement assay. […] After a 1-hour incubation at room temperature, the HTRF signal was measured using Clairostar plate reader (BMG Labtech) according to the manufacturer's instructions. Excitation filter EX-TR was used, and emission 1 was detected at 650-610 nm and emission 2 detected at 620-610 nm. The HTRF ratio was calculated using the formula: [emission 1/emission 2]*10000.
Background signals were calculated from well with a 10 μM inhibitor, known to inhibit 100% at that concentration. The background subtracted signals were converted to % binding relative to DMSO controls. Data were analyzed using XLFIT software (IDBS) using a Morrison equation for competitive binding and Ki's were generated compound of Formula (I).

CCN1CCN(c2cc3c(N[C@H](C)c4cccc(C#N)c4C)nnc(C)c3cn2)[C@@H](C)C1 [Example 1-14, 3-((R)-1-((7-((S)-4-ethyl-2-methylpiperazin-1-yl)-4-methylpyrido[3,4-d]pyridazin-1-yl)amino)ethyl)-2-methylbenzonitrile]
IC50 (pERK in MKN1 cells): 53.9 nM | Ki [1]: 0.788 nM

CCN1CCN(c2cc3c(N[C@H](C)c4cccc(C#N)c4C)nnc(C)c3cn2)[C@H](C)C1 [Example 1-15, 3-((R)-1-((7-((R)-4-ethyl-2-methylpiperazin-1-yl)-4-methylpyrido[3,4-d]pyridazin-1-yl)amino)ethyl)-2-methylbenzonitrile]
IC50 (pERK in MKN1 cells): 63.5 nM | Ki [1]: 0.789 nM

Cc1c(C#N)cccc1[C@@H](C)Nc1nnc(C)c2cnc(N3CCN(C)C[C@H]3C)cc12 [Example 1-16, 3-((R)-1-((7-((R)-2,4-dimethylpiperazin-1-yl)-4-methylpyrido[3,4-d]pyridazin-1-yl)amino)ethyl)-2-methylbenzonitrile]
IC50 (pERK in MKN1 cells): 34.5 nM | Ki [1]: 0.526 nM

Cc1c(C#N)cccc1[C@@H](C)Nc1nnc(C)c2cnc(N3CCN(C)C[C@@H]3C)cc12 [Example 1-17, 3-((R)-1-((7-((S)-2,4-dimethylpiperazin-1-yl)-4-methylpyrido[3,4-d]pyridazin-1-yl)amino)ethyl)-2-methylbenzonitrile]
IC50 (pERK in MKN1 cells): 42.6 nM | Ki [1]: 0.74 nM

CCN1CCN(c2cc3c(N[C@H](C)c4cccc(C#N)c4C)nnc(C)c3cn2)C[C@@H]1C [Example 1-18, 3-((R)-1-((7-((S)-4-ethyl-3-methylpiperazin-1-yl)-4-methylpyrido[3,4-d]pyridazin-1-yl)amino)ethyl)-2-methylbenzonitrile]
IC50 (pERK in MKN1 cells): 35.9 nM | Ki [1]: 0.836 nM

Cc1c(C#N)cccc1[C@@H](C)Nc1nnc(C)c2cnc(N3CCC34CN(C)C4)cc12 [Example 1-19, (R)-2-methyl-3-(1-((4-methyl-7-(6-methyl-1,6-diazaspiro[3.3]heptan-1-yl)pyrido[3,4-d]pyridazin-1-yl)amino)ethyl)benzonitrile]
IC50 (pERK in MKN1 cells): 32.2 nM | Ki [1]: 0.601 nM

Cc1nnc(N[C@H](C)c2cccc(C(F)(F)F)c2F)c2cc(N3CCC34CN(C)C4)ncc12 [Example 1-20, (R)-N-(1-(2-fluoro-3-(trifluoromethyl)phenyl)ethyl)-4-methyl-7-(6-methyl-1,6-diazaspiro[3.3]heptan-1-yl)pyrido[3,4-d]pyridazin-1-amine]
IC50 (pERK in MKN1 cells): 40.7 nM | Ki [1]: 0.682 nM

Cc1nnc(N[C@H](C)c2cccc(C(F)(F)F)c2F)c2cc(N3CCCC34CN(C)C4)ncc12 [Example 1-21, (R)-N-(1-(2-fluoro-3-(trifluoromethyl)phenyl)ethyl)-4-methyl-7-(2-methyl-2,5-diazaspiro[3.4]octan-5-yl)pyrido[3,4-d]pyridazin-1-amine]
IC50 (pERK in MKN1 cells): 25.5 nM | Ki [1]: 0.249 nM

Cc1c(C#N)cccc1[C@@H](C)Nc1nnc(C)c2cnc(N3CCCC34CN(C)C4)cc12 [Example 1-22, (R)-2-methyl-3-(1-((4-methyl-7-(2-methyl-2,5-diazaspiro[3.4]octan-5-yl)pyrido[3,4-d]pyridazin-1-yl)amino)ethyl)benzonitrile]
IC50 (pERK in MKN1 cells): 33.2 nM | Ki [1]: 0.248 nM

Cc1nnc(N[C@H](C)c2cccc(C(F)(F)F)c2F)c2cc(N3CC4(CN(C)C4)C3)ncc12 [Example 1-23, (R)-N-(1-(2-fluoro-3-(trifluoromethyl)phenyl)ethyl)-4-methyl-7-(6-methyl-2,6-diazaspiro[3.3]heptan-2-yl)pyrido[3,4-d]pyridazin-1-amine]
IC50 (pERK in MKN1 cells): 59.1 nM | Ki [1]: 0.21 nM

Cc1c(C#N)cccc1[C@@H](C)Nc1nnc(C)c2cnc(N3CC4(CN(C)C4)C3)cc12 [Example 1-24, (R)-2-methyl-3-(1-((4-methyl-7-(6-methyl-2,6-diazaspiro[3.3]heptan-2-yl)pyrido[3,4-d]pyridazin-1-yl)amino)ethyl)benzonitrile]
IC50 (pERK in MKN1 cells): 40.3 nM | Ki [1]: 0.353 nM
